{
  "source": "paper PMC7845544",
  "about": "(Frontiers in Pharmacology, 2021)",
  "key": {"mouse oocytes": {"tested_on": "mouse oocytes", "assay": "Oocyte quality, IVF and embryo development in mice", "type": "in vivo", "experimental": "Developmental competence of oocytes was determined in mice, as described previously ([Sriraman et al., 2014]). Mice were superovulated with FSH or FSH + TOP5300. […] To measure nuclear status, oocytes were assessed for perivitelline space and first polar body extrusion by phase contrast inverted microscopy. Oocyte maturity was determined by presence of a polar body reflecting oocytes in metaphase-II (MII). Oocytes without a first polar body were assessed as metaphase-I (MI). After the evaluations, oocytes were incubated for 2 h in the media before use in IVF as described ([Sriraman et al., 2014]). Briefly, oocytes were placed in fertilization media (Research Fertilization Media, Cook Medical, Bloomington, IN, United States) under paraffin oil (Calbiochem, San Diego, CA, United States) and incubated at 37°C in 6% CO2, 5% O2 and 89% N2 for 5–6 h with spermatozoa. Spermatozoa were collected from the cauda epididymis of male C57BL/6J mice and were previously incubated for 1 h in fertilization media prior to use (Research Fertilization Media; Cook Medical, Bloomington, IN) for sperm capacitation. The putative zygotes were then washed and placed in 20 μL drops of culture media (Research Cleave Media; Cook Medical, Bloomington, IN, United States) in Petri dishes, or in 60 μL of culture media in Primo Vision microwell group culture dishes (Vitrolife, Gothenberg, Sweden) and checked for fertilization/cleavage the next morning. Embryos were then cultured in the incubator for an additional 3 days to the blastocyst stage and the blastocyst development rate was recorded."}, "PDE isoforms": {"tested_on": "PDE isoforms", "assay": "Phosphodiesterase (PDE) profile (Eurofins)", "type": "biochemical", "details": "9 isoforms PDE"}, "[1]": {"details": "rec-hFSH + TOP5300, 30, 100 mg/kg"}},
  "data": [
    {"compound": "COc1cc2c(cc1-c1cnn(CCO)c1)-c1c(c(C(=O)N(C)C(C)(C)C)nn1-c1cc(Cl)cc(Cl)c1)CO2", "note": "[TOP5300]", "values": [
      {"measurement": "% of M2 oocytes", "setting": "mouse oocytes; 30 mg/kg with low dose FSH", "result": "comparable to FSH and PMSG"},
      {"measurement": "M1/M2 oocytes relative to FSH and PMSG group", "setting": "mouse oocytes; 100 mg/kg", "result": "fewer mature oocytes (M2 oocytes) and more M1 oocytes"},
      {"measurement": "fertilization rates vs rec-hFSH-treated mice", "setting": "mouse oocytes; [1]", "result": "no differences"},
      {"measurement": "hatched blastocyst rates vs rec-hFSH-treated mice", "setting": "mouse oocytes; [1]", "result": "no differences"},
      {"measurement": "PDE profile @ 10 uM", "setting": "PDE isoforms", "result": "N o si g ni fi cant i nhi bi ti on any"}
    ]}
  ]
}
